Tested on: MOLM-13 cells
Test: MOLM-13 Cell Proliferation Assay (indicator of DHODH inhibition)
Assay type: cell-based
Settings: Homo sapiens, 72 Hours of culture, CellTiter-Glo, no uridine
In short: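 Proliferation readout via CellTiter-Glo luminescence after 72 h compound treatment (37 °C, 5% CO2, 0.5% DMSO) of MOLM-13 cells seeded at 10^4 per well in RPMI 1640/10% FBS, used as a DHODH-inhibition indicator since these cells rely on de novo pyrimidine synthesis.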

SMILES | IC50 [nM]
Fc1ccc(C2c3[nH]c4cc(F)c(Cl)cc4c3CCN2c2nccc(C(F)(F)F)n2)c(F)n1 (stereo not drawn) [Compound 184, 6-chloro-1-(2,6-difluoropyridin-3-yl)-7-fluoro-2-[4-(trifluoromethyl)pyrimidin-2-yl]-2,3,4,9-tetrahydro-1H-pyrido[3,4-b]indole] | 8
Fc1ccc(C2c3[nH]c4ccc(Cl)c(F)c4c3CCN2c2nccc(C(F)(F)F)n2)c(F)n1 (stereo not drawn) [Compound 186, 6-chloro-1-(2,6-difluoropyridin-3-yl)-5-fluoro-2-[4-(trifluoromethyl)pyrimidin-2-yl]-2,3,4,9-tetrahydro-1H-pyrido[3,4-b]indole] | 3
N#Cc1ccc(C2c3[nH]c4cc(F)c(Cl)cc4c3CCN2c2nc(C(F)(F)F)cc(C(F)(F)F)n2)cc1 (stereo not drawn) [Compound 188, 4-{2-[4,6-bis(trifluoromethyl)pyrimidin-2-yl]-6-chloro-7-fluoro-2,3,4,9-tetrahydro-1H-pyrido[3,4-b]indol-1-yl}benzonitrile] | 0.6
Fc1c(Cl)ccc2[nH]c3c(c12)CCN(c1nccc(C(F)(F)F)n1)C3c1cncnc1 (stereo not drawn) [Compound 191, 6-chloro-5-fluoro-1-(pyrimidin-5-yl)-2-[4-(trifluoromethyl)pyrimidin-2-yl]-2,3,4,9-tetrahydro-1H-pyrido[3,4-b]indole] | 20.7
Fc1c(Cl)ccc2[nH]c3c(c12)CCN(c1nccc(C(F)(F)F)n1)C3c1cnc(-n2ccnc2)nc1 (stereo not drawn) [Compound 193, 6-chloro-5-fluoro-1-[2-(1H-imidazol-1-yl)pyrimidin-5-yl]-2-[4-(trifluoromethyl)pyrimidin-2-yl]-2,3,4,9-tetrahydro-1H-pyrido[3,4-b]indole] | 3.8
CNc1ncc(C2c3[nH]c4ccc(Cl)c(F)c4c3CCN2c2nccc(C(F)(F)F)n2)cn1 (stereo not drawn) [Compound 199, 5-{6-chloro-5-fluoro-2-[4-(trifluoromethyl)pyrimidin-2-yl]-2,3,4,9-tetrahydro-1H-pyrido[3,4-b]indol-1-yl}-N-methylpyrimidin-2-amine] | 5.4
Fc1c(Cl)ccc2[nH]c3c(c12)CCN(c1nccc(C(F)(F)F)n1)C3c1cnc(N2CCOCC2)nc1 (stereo not drawn) [Compound 200, 6-chloro-5-fluoro-1-[2-(morpholin-4-yl)pyrimidin-5-yl]-2-[4-(trifluoromethyl)pyrimidin-2-yl]-2,3,4,9-tetrahydro-1H-pyrido[3,4-b]indole] | 2.1
Fc1c(Cl)ccc2[nH]c3c(c12)CCN(c1nccc(C(F)(F)F)n1)C3c1cccnc1 (stereo not drawn) [Compound 202, 6-chloro-5-fluoro-1-(pyridin-3-yl)-2-[4-(trifluoromethyl)pyrimidin-2-yl]-2,3,4,9-tetrahydro-1H-pyrido[3,4-b]indole] | 16.2
Cc1ccc(C2c3[nH]c4c(O)cc(Cl)cc4c3CCN2c2nccc(C(F)(F)F)n2)cc1 (stereo not drawn) [Compound 207, 6-chloro-1-(4-methylphenyl)-2-[4-(trifluoromethyl)pyrimidin-2-yl]-2,3,4,9-tetrahydro-1H-pyrido[3,4-b]indol-8-ol] | 2.2
CN(C)c1ccc(C2c3[nH]c4cc(F)c(Cl)cc4c3CCN2c2nccc(C(F)(F)F)n2)c(F)n1 (stereo not drawn) [Compound 208, 5-{6-chloro-7-fluoro-2-[4-(trifluoromethyl)pyrimidin-2-yl]-2,3,4,9-tetrahydro-1H-pyrido[3,4-b]indol-1-yl}-6-fluoro-N,N-dimethylpyridin-2-amine] | 2.2
CN(C)c1ccc(C2c3[nH]c4ccc(Cl)c(F)c4c3CCN2c2nccc(C(F)(F)F)n2)c(F)n1 (stereo not drawn) [Compound 210, 5-{6-chloro-5-fluoro-2-[4-(trifluoromethyl)pyrimidin-2-yl]-2,3,4,9-tetrahydro-1H-pyrido[3,4-b]indol-1-yl}-6-fluoro-N,N-dimethylpyridin-2-amine] | 1.9
Fc1cnc(N2CCc3c([nH]c4ccc(Cl)c(F)c34)C2c2cnc(N3CCOCC3)nc2)nc1 (stereo not drawn) [Compound 211, 6-chloro-5-fluoro-2-(5-fluoropyrimidin-2-yl)-1-[2-(morpholin-4-yl)pyrimidin-5-yl]-2,3,4,9-tetrahydro-1H-pyrido[3,4-b]indole] | 4.9
Cc1ccc(C2c3[nH]c4cc(F)c(Cl)cc4c3CCN2c2nc(C#N)cc(C#N)n2)c(F)c1F (stereo not drawn) [Compound 216, 2-[6-chloro-1-(2,3-difluoro-4-methylphenyl)-7-fluoro-1,3,4,9-tetrahydro-2H-pyrido[3,4-b]indol-2-yl]pyrimidine-4,6-dicarbonitrile] | 4.8

Other lines, results leading:

IC50 [nM] | SMILES
16.2 | Cc1ccnc(N2CCc3c([nH]c4ccc(Cl)cc34)[C@H]2c2ccc(C)c(F)c2F)n1 [Compound 185, (1R)-6-chloro-1-(2,3-difluoro-4-methylphenyl)-2-(4-methylpyrimidin-2-yl)-2,3,4,9-tetrahydro-1H-pyrido[3,4-b]indole]
20.3 | Cc1ccc([C@@H]2c3[nH]c4ccc(Cl)cc4c3CCN2c2ncc(F)c(C)n2)c(F)c1F [Compound 187, (1R)-6-chloro-1-(2,3-difluoro-4-methylphenyl)-2-(5-fluoro-4-methylpyrimidin-2-yl)-2,3,4,9-tetrahydro-1H-pyrido[3,4-b]indole]
0.4 | Cc1ccc([C@H]2c3[nH]c4ccc(Cl)c(F)c4c3CCN2c2nc(C)c(F)c(C)n2)c(F)c1F [Compound 189, (1S)-6-chloro-1-(2,3-difluoro-4-methylphenyl)-5-fluoro-2-(5-fluoro-4,6-dimethylpyrimidin-2-yl)-2,3,4,9-tetrahydro-1H-pyrido[3,4-b]indole]
420 | Cc1ccc([C@@H]2c3[nH]c4ccc(Cl)c(F)c4c3CCN2c2nc(C)c(F)c(C)n2)c(F)c1F [Compound 190, (1R)-6-chloro-1-(2,3-difluoro-4-methylphenyl)-5-fluoro-2-(5-fluoro-4,6-dimethylpyrimidin-2-yl)-2,3,4,9-tetrahydro-1H-pyrido[3,4-b]indole]
2 | Cc1ccc(C2c3[nH]c4ccc(C)c(F)c4c3CCN2c2nccc(C(F)(F)F)n2)c(F)c1F (stereo not drawn) [Compound 192, 1-(2,3-difluoro-4-methylphenyl)-5-fluoro-6-methyl-2-[4-(trifluoromethyl)pyrimidin-2-yl]-2,3,4,9-tetrahydro-1H-pyrido[3,4-b]indole]
11.4 | CN(C)c1ccc(C2c3[nH]c4ccc(Cl)c(F)c4c3CCN2c2ncc(F)cn2)cn1 (stereo not drawn) [Compound 194, 5-[6-chloro-5-fluoro-2-(5-fluoropyrimidin-2-yl)-2,3,4,9-tetrahydro-1H-pyrido[3,4-b]indol-1-yl]-N,N-dimethylpyridin-2-amine]
1 | Cc1ccc(C2c3[nH]c4ccc(Cl)c(F)c4c3CCN2c2ncc(Cl)cn2)c(F)c1F (stereo not drawn) [Compound 195, 6-chloro-2-(5-chloropyrimidin-2-yl)-1-(2,3-difluoro-4-methylphenyl)-5-fluoro-2,3,4,9-tetrahydro-1H-pyrido[3,4-b]indole]
1.8 | Cc1ccnc(N2CCc3c([nH]c4ccc(Cl)c(F)c34)C2c2ccc(C)c(F)c2F)n1 (stereo not drawn) [Compound 196, 6-chloro-1-(2,3-difluoro-4-methylphenyl)-5-fluoro-2-(4-methylpyrimidin-2-yl)-2,3,4,9-tetrahydro-1H-pyrido[3,4-b]indole]
1.2 | Cc1ccc(C2c3[nH]c4ccc(Cl)c(F)c4c3CCN2c2nccc(C#N)n2)c(F)c1F (stereo not drawn) [Compound 198, 2-[6-chloro-1-(2,3-difluoro-4-methylphenyl)-5-fluoro-1,3,4,9-tetrahydro-2H-pyrido[3,4-b]indol-2-yl]pyrimidine-4-carbonitrile]
7.9 | CN(C)c1ncc(C2c3[nH]c4ccc(Cl)c(F)c4c3CCN2c2ncc(F)cn2)cn1 (stereo not drawn) [Compound 201, 5-[6-chloro-5-fluoro-2-(5-fluoropyrimidin-2-yl)-2,3,4,9-tetrahydro-1H-pyrido[3,4-b]indol-1-yl]-N,N-dimethylpyrimidin-2-amine]
1.6 | Cc1ccnc(N2CCc3c([nH]c4ccc(Cl)cc34)C2c2ccc(C)c(F)c2F)n1 (stereo not drawn) [Compound 203, 6-chloro-1-(2,3-difluoro-4-methylphenyl)-2-(4-methylpyrimidin-2-yl)-2,3,4,9-tetrahydro-1H-pyrido[3,4-b]indole]
39.8 | Cc1cc(C(F)(F)F)nc(N2CCc3c([nH]c4ccc(Cl)cc34)[C@H]2c2ccc(C)c(F)c2F)n1 [Compound 204, (1R)-6-chloro-1-(2,3-difluoro-4-methylphenyl)-2-[4-methyl-6-(trifluoromethyl)pyrimidin-2-yl]-2,3,4,9-tetrahydro-1H-pyrido[3,4-b]indole]
0.7 | Cc1cc(C)nc(N2CCc3c([nH]c4ccc(Cl)c(F)c34)C2c2ccc(C)c(F)c2F)n1 (stereo not drawn) [Compound 205, 6-chloro-1-(2,3-difluoro-4-methylphenyl)-2-(4,6-dimethylpyrimidin-2-yl)-5-fluoro-2,3,4,9-tetrahydro-1H-pyrido[3,4-b]indole]
0.4 | Cc1cc(C(F)(F)F)nc(N2CCc3c([nH]c4ccc(Cl)c(F)c34)C2c2ccc(C)c(F)c2F)n1 (stereo not drawn) [Compound 206, 6-chloro-1-(2,3-difluoro-4-methylphenyl)-5-fluoro-2-[4-methyl-6-(trifluoromethyl)pyrimidin-2-yl]-2,3,4,9-tetrahydro-1H-pyrido[3,4-b]indole]
0.8 | Cc1ccc(C2c3[nH]c4ccc(Cl)c(F)c4c3CCN2c2nc(C(F)(F)F)cc(C(F)(F)F)n2)c(F)c1F (stereo not drawn) [Compound 209, 2-[4,6-bis(trifluoromethyl)pyrimidin-2-yl]-6-chloro-1-(2,3-difluoro-4-methylphenyl)-5-fluoro-2,3,4,9-tetrahydro-1H-pyrido[3,4-b]indole]
71 | Nc1ncc(C2c3[nH]c4ccc(Cl)c(F)c4c3CCN2c2ncc(F)cn2)cn1 (stereo not drawn) [Compound 212, 5-[6-chloro-5-fluoro-2-(5-fluoropyrimidin-2-yl)-2,3,4,9-tetrahydro-1H-pyrido[3,4-b]indol-1-yl]pyrimidin-2-amine]
0.5 | Cc1ccc(C2c3[nH]c4ccc(Cl)c(F)c4c3CCN2c2ncc(F)c(C#N)n2)c(F)c1F (stereo not drawn) [Compound 214, 2-[6-chloro-1-(2,3-difluoro-4-methylphenyl)-5-fluoro-1,3,4,9-tetrahydro-2H-pyrido[3,4-b]indol-2-yl]-5-fluoropyrimidine-4-carbonitrile]

Reference: patent US20250186437A1, “CARBOLINE COMPOUNDS AND USE THEREOF” (PTC Therapeutics, Inc., priority 2021, published 2025)
